# Experimental data published in ChEMBL document CHEMBL1681651, “A broad spectrum anticancer nucleoside with selective toxicity against human colon cells in vitro” (2011).
# Key:
# Assay type in all cases: functional
# SK-MEL-5 = assay: Growth inhibition of human SK-MEL-5 cells assessed as cell growth at 1 uM after 48 hrs by SRB assay; conditions: SK-MEL-5, 48 h, read-out: Activity
# NCI-H322M [1] = assay: Growth inhibition of human NCI-H322M cells assessed as cell growth at 0.1 uM after 48 hrs by SRB assay; conditions: read-out: Activity
# SN12C [2] = assay: Growth inhibition of human SN12C cells assessed as cell growth at 1 uM after 48 hrs by SRB assay; conditions: read-out: Activity
# NCI-H522 [3] = assay: Growth inhibition of human NCI-H522 cells after 48 hrs by […] growth inhibition assay; conditions: NCI-H522, 48 h
# OVCAR-5 = assay: Growth inhibition of human OVCAR5 cells after 48 hrs by […] growth inhibition assay; conditions: OVCAR-5, 48 h
# NCI-H226 = assay: Growth inhibition of human NCI-H226 cells after 48 hrs by […] growth inhibition assay; conditions: NCI-H226, 48 h
# NCI-H522 [4] = assay: Growth inhibition of human NCI-H522 cells assessed as cell growth at 1 mM after 48 hrs by SRB assay; conditions: NCI-H522, 48 h, read-out: Activity
# A498 [5] = assay: Growth inhibition of human A498 cells assessed as cell growth at 0.1 uM after 48 hrs by SRB assay; conditions: A498, 48 h, read-out: Activity
# ACHN [6] = assay: Growth inhibition of human ACHN cells assessed as cell growth at 1 mM after 48 hrs by SRB assay; conditions: read-out: Activity
# 786-0 = assay: Growth inhibition of human 786-0 cells after 48 hrs by […] growth inhibition assay; conditions: 786-0, 48 h
# NCI-H322M [7] = assay: Growth inhibition of human NCI-H322M cells assessed as cell growth at 10 uM after 48 hrs by SRB assay; conditions: read-out: Activity
# U-251 = assay: Growth inhibition of human U251 cells after 48 hrs by […] growth inhibition assay; conditions: U-251, 48 h
# HOP-92 = assay: Growth inhibition of human HOP92 cells assessed as cell growth at 1 uM after 48 hrs by SRB assay; conditions: HOP-92, 48 h, read-out: Activity
# HOP-62 = assay: Growth inhibition of human HOP62 cells assessed as cell growth at 100 uM after 48 hrs by SRB assay; conditions: HOP-62, 48 h, read-out: Activity
# SNB-75 = assay: Growth inhibition of human SNB75 cells assessed as cell growth at 10 uM after 48 hrs by SRB assay; conditions: SNB-75, 48 h, read-out: Activity
# SN12C [8] = assay: Growth inhibition of human SN12C cells assessed as cell growth at 1 mM after 48 hrs by SRB assay; conditions: read-out: Activity
# DU-145 = assay: Growth inhibition of human DU145 cells assessed as cell growth at 1 mM after 48 hrs by SRB assay; conditions: DU-145, 48 h, read-out: Activity
# ACHN [9] = assay: Growth inhibition of human ACHN cells after 48 hrs by […] growth inhibition assay
# OVCAR-4 = assay: Growth inhibition of human OVCAR4 cells after 48 hrs by […] growth inhibition assay; conditions: OVCAR-4, 48 h
# A498 [10] = assay: Growth inhibition of human A498 cells assessed as cell growth at 100 uM after 48 hrs by SRB assay; conditions: A498, 48 h, read-out: Activity
# T47D = assay: Growth inhibition of human T47D cells assessed as cell growth at 1 mM after 48 hrs by SRB assay; conditions: read-out: Activity
# CCRF-CEM = assay: Growth inhibition of human CCRF-CEM cells assessed as cell growth at 0.1 uM after 48 hrs by SRB assay; conditions: read-out: Activity
# EKVX = assay: Growth inhibition of human EKVX cells assessed as cell growth at 1 uM after 48 hrs by SRB assay; conditions: read-out: Activity
# SN12C [11] = assay: Growth inhibition of human SN12C cells assessed as cell growth at 10 uM after 48 hrs by SRB assay; conditions: read-out: Activity
# M14 = assay: Growth inhibition of human M14 cells assessed as cell growth at 10 uM after 48 hrs by SRB assay; conditions: M14, 48 h, read-out: Activity
# MCF7 = assay: Growth inhibition of human MCF7 cells assessed as cell growth at 100 uM after 48 hrs by SRB assay; conditions: MCF7, 48 h, read-out: Activity
# NCI-H23 = assay: Growth inhibition of human NCI-H23 cells after 48 hrs by […] growth inhibition assay; conditions: NCI-H23, 48 h
# RXF 393 = assay: Growth inhibition of human RXF393 cells after 48 hrs by […] growth inhibition assay; conditions: RXF 393, 48 h
# HCT-116 = assay: Growth inhibition of human HCT116 cells assessed as cell growth at 1 mM after 48 hrs by SRB assay; conditions: HCT-116, 48 h, read-out: Activity
# SF-268 = assay: Growth inhibition of human SF268 cells assessed as cell growth at 100 uM after 48 hrs by SRB assay; conditions: SF-268, 48 h, read-out: Activity
# NCI-H460 = assay: Growth inhibition of human NCI-H460 cells assessed as cell growth at 100 uM after 48 hrs by SRB assay; conditions: NCI-H460, 48 h, read-out: Activity
# [12] = read-out: LC50 (the source's name)
# [13] = read-out: pLC50 (the source's name) (converted)
smiles,measurement,setting,value
CNC(=O)NC[C@H]1O[C@@H](n2cnc3c(NC(=O)Nc4ccccc4)ncnc32)[C@H](O[Si](C)(C)C(C)(C)C)[C@@H]1CC(=O)N(C)OC,growth at 1 µM,SK-MEL-5,98%
same,growth at 0.1 µM,NCI-H322M [1],97%
same,growth at 1 µM,SN12C [2],104%
same,GI50,NCI-H522 [3]; read-out: GI50,11.1 µM
same,CC50,NCI-H522 [3]; [12],> 100 µM
same,TGI,NCI-H522 [3]; read-out: TGI,> 100 µM
same,GI50,NCI-H522 [3]; read-out: pGI50 (converted),11 µM
same,CC50,NCI-H522 [3]; [13],> 100 µM
same,TGI,NCI-H522 [3]; read-out: pTGI (converted),> 100 µM
same,GI50,OVCAR-5; read-out: GI50,38.2 µM
same,CC50,OVCAR-5; [12],> 100 µM
same,TGI,OVCAR-5; read-out: TGI,> 100 µM
same,GI50,OVCAR-5; read-out: pGI50 (converted),38 µM
same,CC50,OVCAR-5; [13],> 100 µM
same,TGI,OVCAR-5; read-out: pTGI (converted),> 100 µM
same,GI50,NCI-H226; read-out: GI50,41.9 µM
same,CC50,NCI-H226; [12],> 100 µM
same,TGI,NCI-H226; read-out: TGI,> 100 µM
same,GI50,NCI-H226; read-out: pGI50 (converted),41.7 µM
same,CC50,NCI-H226; [13],> 100 µM
same,TGI,NCI-H226; read-out: pTGI (converted),> 100 µM
same,growth at 1000 µM,NCI-H522 [4],31%
same,growth at 0.1 µM,A498 [5],90%
same,growth at 1000 µM,ACHN [6],23%
same,GI50,786-0; read-out: GI50,9.01 µM
same,CC50,786-0; [12],> 100 µM
same,TGI,786-0; read-out: TGI,> 100 µM
same,GI50,786-0; read-out: pGI50 (converted),8.91 µM
same,CC50,786-0; [13],> 100 µM
same,TGI,786-0; read-out: pTGI (converted),> 100 µM
same,growth at 10 µM,NCI-H322M [7],102%
same,GI50,U-251; read-out: GI50,5.66 µM
same,CC50,U-251; [12],> 100 µM
same,TGI,U-251; read-out: TGI,> 100 µM
same,GI50,U-251; read-out: pGI50 (converted),5.62 µM
same,CC50,U-251; [13],> 100 µM
same,TGI,U-251; read-out: pTGI (converted),> 100 µM
same,growth at 1 µM,HOP-92,93%
same,growth at 100 µM,HOP-62,64%
same,growth at 10 µM,SNB-75,84%
same,growth at 1000 µM,SN12C [8],49%
same,growth at 1000 µM,DU-145,16%
same,GI50,ACHN [9]; read-out: GI50,14.4 µM
same,CC50,ACHN [9]; [12],> 100 µM
same,TGI,ACHN [9]; read-out: TGI,> 100 µM
same,GI50,ACHN [9]; read-out: pGI50 (converted),14.5 µM
same,CC50,ACHN [9]; [13],> 100 µM
same,TGI,ACHN [9]; read-out: pTGI,> 100 µM
same,GI50,OVCAR-4; read-out: GI50,53 µM
same,CC50,OVCAR-4; [12],> 100 µM
same,TGI,OVCAR-4; read-out: TGI,> 100 µM
same,GI50,OVCAR-4; read-out: pGI50 (converted),52.5 µM
same,CC50,OVCAR-4; [13],> 100 µM
same,TGI,OVCAR-4; read-out: pTGI,> 100 µM
same,growth at 100 µM,A498 [10],24%
same,growth at 1000 µM,T47D,17%
same,growth at 0.1 µM,CCRF-CEM,101%
same,growth at 1 µM,EKVX,95%
same,growth at 10 µM,SN12C [11],96%
same,growth at 10 µM,M14,91%
same,growth at 100 µM,MCF7,34%
same,GI50,NCI-H23; read-out: GI50,57.2 µM
same,CC50,NCI-H23; [12],> 100 µM
same,TGI,NCI-H23; read-out: TGI,> 100 µM
same,GI50,NCI-H23; read-out: pGI50 (converted),57.5 µM
same,CC50,NCI-H23; [13],> 100 µM
same,TGI,NCI-H23; read-out: pTGI (converted),> 100 µM
same,GI50,RXF 393; read-out: GI50,9.74 µM
same,CC50,RXF 393; [12],> 100 µM
same,TGI,RXF 393; read-out: TGI,38 µM
same,GI50,RXF 393; read-out: pGI50 (converted),9.77 µM
same,CC50,RXF 393; [13],> 100 µM
same,TGI,RXF 393; read-out: pTGI (converted),38 µM
same,growth at 1000 µM,HCT-116,6%
same,growth at 100 µM,SF-268,46%
same,growth at 100 µM,NCI-H460,44%
